Assay results taken from patent publication US9468646B2, “Increased dosage of efavirenz for the treatment of cancer” (Alienor Farma, priority 2013, dated 2016).
“And” between values parts separate entries of the source, which are not always exact repeats. Equal values may be shown once. Read-outs that look alike come from different tables or passages of the source.

Legend:
[1] = Pharmacokinetic study in rats (Balani et al 1999); assay type: in vivo; settings: rat, intravenous injection of 5 mg/kg, converted from μM
[2] = tested on: hormone refractory prostate cancer; assay: FAVE follow up study: progression free survival (RECIST) and overall survival, ITT analysis; assay type: in vivo, human
Experimental: For the exploratory analysis, following the latest recommendations of the Prostate Cancer Clinical Trials Working Group (Scher, 2008), PSA progression was defined as an increase of more than 25% over the baseline and an increase in the concentrations of PSA of at least 2 ng/ml. The clinical symptoms, the number of new bone metastasis and the global response to treatment (evaluated by the RECIST criteria) were also recorded. After three months, the global response and the overall survival were evaluated in a follow up study. This approach was followed by an interventional approach aimed to establish a causal relationship between dose and efficacy of the treatment. In this case after three months of treatment at the 600 mg/day dose, the doses of Efavirenz were progressively raised to reach 1.2 g/day. Differences in disease progression as a function of plasma Efavirenz concentrations were confirmed in the follow up study. […] Log-rank Mantel-Cox's test, the <1500 and 1500-3000 groups were cumulated for statistical analysis). […] These thirteen patients were used to constitute the dose escalation group.

[3] = FAVE study: Efavirenz plasma concentration (UPLC-MS/MS); assay type: in vivo, human; settings: 600 mg/day
Excerpt: Sixty-one patients were included in the study and fifty-three patients had no violation of the eligibility criteria and received Efavirenz at least once (general population). The assessment of Efavirenz plasma concentrations was an optional exploratory objective to which the patients had to expressly consent. Plasma Efavirenz concentrations at the three month time point were available for 41 patients that were used for the exploratory analysis. Blood samples for the evaluation of Efavirenz plasma concentrations were taken at three months after the start of Efavirenz treatment. For Efavirenz plasma concentration determination, 10 ml of blood were collected using sodium or lithium heparinate tubes. After each blood collection, the tubes of blood were centrifuged for 5 minutes at 5000 g. Plasma was collected in polypropylene tubes. The plasma tubes of each subject were packed and stored in appropriately labelled plastic frost-resistant bags and stored at −20° C. until analysis. Samples were sent to a pharmacokinetic analysis laboratory for Efavirenz concentration analysis that was performed using a validated mass-spectrometry coupled to liquid chromatography (UPLC-MS/MS) method. […] Calibration curves were obtained by analysis of standard solutions prepared in plasma in the range 100-10000 ng/mL and limit of quantification (LOQ) was 2.5 ng/mL.

[4] = tested on: metastatic hormone-refractory prostate cancer; assay: FAVE study: PSA progression at 3 months under Efavirenz; assay type: in vivo, human; settings: 600 mg/day; for PSA progression (share of subjects): 3 months
Experimental: For the exploratory analysis, following the latest recommendations of the Prostate Cancer Clinical Trials Working Group (Scher, 2008), PSA progression was defined as an increase of more than 25% over the baseline and an increase in the concentrations of PSA of at least 2 ng/ml. The clinical symptoms, the number of new bone metastasis and the global response to treatment (evaluated by the RECIST criteria) were also recorded. After three months, the global response and the overall survival were evaluated in a follow up study. Patients received 600 mg of Efavirenz per day and, during Efavirenz treatment, hormone therapy was maintained. […] However, it is difficult to predict precisely the efficacious dose in humans based on preclinical data. For this reason, the goal of the FAVE study was twofold: 1. […] Explore the relationship between the dose of the compound and clinical efficacy. In order to establish the minimal efficacious dose that could be effective for the treatment of prostate cancer the inventor used a correlational approach in which plasma concentrations of Efavirenz were related to treatment efficacy measured at the three month time point. Sixty-one patients were included in the study and fifty-three patients had no violation of the eligibility criteria and received Efavirenz at least once (general population). The assessment of Efavirenz plasma concentrations was an optional exploratory objective to which the patients had to expressly consent. Plasma Efavirenz concentrations at the three month time point were available for 41 patients that were used for the exploratory analysis.

[5] = cited from earlier work
[6] = ESCALE study: Efavirenz plasma concentration depending on daily dose (UPLC-MS/MS); assay type: in vivo, human; settings: for mean plasma concentration of Efavirenz: three patients
Excerpt: The […] clinical study is a single arm, single center (Bergonie Institute), and dose escalation phase I study. Objectives of this study are to assess the safety, tolerability, and recommended dose of Efavirenz administered orally, by continuous once-daily administration in patients with solid tumors (no pancreatic cancer) and Non-Hodgkin Lymphoma (NHL) who have failed chemotherapy treatment. The scheme of the study is a dose escalation evaluated by continual reassessment method likelihood approach (O'Quickley, 1996). […] The maximal subject number assessable is 30 patients. Blood samples for the evaluation of Efavirenz plasma concentrations were taken at 14 days, 28 days after the start of Efavirenz treatment. For Efavirenz plasma concentration determination, 10 ml of blood were collected using sodium or lithium heparinate tubes. After each blood collection, the tubes of blood were centrifuged for 5 minutes at 5000 g. Plasma was collected in polypropylene tubes. The plasma tubes of each subject were packed and stored in appropriately labelled plastic frost-resistant bags and stored at -20° C. until analysis. Samples were sent to a pharmacokinetic analysis laboratory for Efavirenz concentration analysis that was performed using a validated mass-spectrometry coupled to liquid chromatography (UPLC-MS/MS) method. […] The sample was vortex-mixed for 30 sec, and then 5 mL of diethyl ether was added. After 15 min under agitation, the organic and aqueous phases were separated by centrifugation at 3000 rpm for 10 min. […] The residue was re-dissolved in 150 μL of methanol. The UPLC-MS/MS unit consisted of Waters ACQUITY UPLC® instrument coupled with an Acquity TQD® detector. Separations were performed at 40° C. on an Acquity UPLC® BEH C18 column (50*2.1 mm) at a flow rate of 0.3 mL/min. Gradient elution was performed over 2.3 minutes using a combination of acetonitrile and ammonium formate buffer (4 mM) as mobile phase. […] Calibration curves were obtained by analysis of standard solutions prepared in plasma in the range 100-10000 ng/mL and limit of quantification (LOQ) was 2.5 ng/mL.

[7] = rat, intravenous injection of 5 mg/kg; cited from earlier work
L1-RT = settings: human tumor cell lines; cited from earlier work

O=C1Nc2ccc(Cl)cc2[C@@](C#CC2CC2)(C(F)(F)F)O1 [Efavirenz]
maximal plasma concentration [1]: 1578 ng/mL
median progression free survival ([2]; dose escalation group: up to 1200 mg/day, originally <3000 ng/ml, 13 patients): 10 months
median progression free survival ([2]; low (<1500 ng/ml) and intermediate (1500-3000 ng/ml) groups cumulated): 3 months
median progression free survival ([2]; plasma Efavirenz 1500-3000 ng/ml group): 3 months
median progression free survival ([2]; plasma Efavirenz <1500 ng/ml group): 3 months
median progression free survival ([2]; plasma Efavirenz <3000 ng/ml, no dose escalation (600 mg/day)): 3 months
median progression free survival ([2]; plasma Efavirenz >3000 ng/ml group): 17 months
patients with Efavirenz plasma concentration of at least 1500 ng/ml ([3]; 3 months, 41 patients): 70%
concentration at 3 months ([3]; human, plasma, cancer patients): 2140 ng/mL
PSA progression (share of subjects) ([4]; plasma Efavirenz 1500-3000 ng/ml group, N=22): 81.8%
PSA progression (share of subjects) ([4]; plasma Efavirenz <1500 ng/ml group, N=12): 83.3%
non-progressions for PSA levels at 3 months (share of patients) ([4]; all treated patients, N=53): 28%
patients in whom the disease continued to progress (PSA) at 3 months ([4]; all treated patients, N=53): 72%
subjects with plasma concentrations above 1500 ng/ml ([5]; 600 mg/day (Marzolini, 2001)): 70-80%
Efavirenz plasma concentration reached ([5]; 600 mg/day, patients with two loss or decrease of function CYP2B6 alleles (Rotger, 2007)): at least 3000 ng/ml
mean plasma concentration of Efavirenz ([6]; 1800 mg/day): 3712 ng/mL and > 3000 ng/mL and > 3500 ng/mL
mean plasma concentration of Efavirenz ([6]; 2200 mg/day): 7364 ng/mL and > 6500 ng/mL
patients with Efavirenz plasma concentration of at least 3000 ng/ml ([6]; daily dose between 1800 and 2200 mg): 84%
maximal plasma concentration [7]: 5 µM

Cc1ccnc2c1NC(=O)c1cccnc1N2C1CC1 [Nevirapine]
reverse transcriptase activity of L1-RT (L1-RT): able to inhibit
